These results are taken from patent US11261187B2, “Compounds and methods for targeting HSP90” (Duke University, priority 2016, dated 2022).

The nature of series [1]: Storage stability by LC/MS at a later date. As to conditions: primarily to the hydride. The class given is physicochemical. As to the method:
Compound 116 (50 mg, 33 μmol), hexamethylditin (14 mg, 9 μL, 42 μmol) and tetrakis triphenylphosphine palladium(0) (1 mg 1 μmol) were slurried in dioxane (1 mL), purged with nitrogen for 30 m and heated to 100° C. for an hour. The reaction was mixture was adsorbed onto silica gel and chromatographed (50 g C18, 0.2% formic acid to 100% MeOH) to give product 118 (13.9 mg, 27%) as a blue solid. LC/MS gives a single peak with a little shoulder with m/z=785.8 [M+2H]^2+ as part of a cluster typical of Tin compounds.

The next series concerns non-malignant cells. Kind of series: Puncta formation on non-malignant cells. The class given is cell-based. As to the method: Using a standard fluorescence curve, the concentration within the puncta of 100 was estimated to be 4.66±0.05 μM. Based on puncta volume and a ratio of 1:1 for 100:Hsp90 (as each monomer of Hsp90 has a single ATP-binding site), the larger puncta are estimated to contain 2659±105 monomers of eHsp90. Accumulation of the puncta intracellularly is time-dependent (FIG. 3b). Formation of the puncta is eHsp90-dependent and not related to any physiochemical properties of the probes themselves. […] This diffusion may be a result of exchange with intracellular ATP or the degradation of the internalized eHsp90. Probe aggregates alone would not be expected to spontaneously dissipate without the addition of some form of organic solvent.

Another series relates to MDA-MB-468 cells. Briefly: Confocal imaging of eHsp90 puncta in probe-treated tumor cells. The class given is cell-based. As to the method: Cells were plated on uncoated 18-mm round coverslips in 12 well plates at 150,000 cells/well and were allowed to adhere overnight. 100, in a stock solution in DMSO, was diluted in serum-free/phenol red-free DMEM. After drug incubation, the cells were washed twice with ice-cold PBS, fixed with 1% PFA in PBS for 10 min, and stained with 5 μg/mL wheat germ agglutinin-488 (WGA-488, Invitrogen, Waltham, Mass.) and either Hoescht or DAPI. The coverslips were washed and mounted onto microscope slides using FluorSave mounting reagent (Millipore, Darmstadt, Germany). Slides were imaged on a Leica SP5 confocal microscope.
(§1) Images were analyzed for fluorescence and puncta using ImageJ software using a non-biased, high-throughput macro. In brief, cells were selected using an expanded selection from the DAPI channel. The regions of interest were then masked, a watershed filter was applied to split adjacent cells into separate cells, and the regions of interest were applied to the 100 channel to measure fluorescence and puncta. High resolution confocal stacks were deconvolved with Hyugen's Deconvolution Software or AiryScan.
Using a standard fluorescence curve, the concentration within the puncta of 100 was estimated to be 4.66±0.05 μM. […]

In series [2] the test system is eHsp90. Kind of series: Live imaging and tracking of puncta (lattice light sheet microscope). The class given is cell-based. To be noted: 10 μM 100 competed with 100 μM HS-10. As to the method: Live imaging was also performed on cells treated with 100 alone, 101, or 100 and HS-10, and spots were tracked over time to investigate any differences in puncta movement and size. […] Puncta detected with 100 were competed with HS-10 (FIG. 3d).

The test system of series [3] is eHsp90. Briefly: Competition of fluorescent probe binding to eHsp90 on cells by untethered Hsp90 inhibitors. The class given is cell-based. As to the method:
Cells were plated on uncoated 18-mm round coverslips in 12 well plates at 150,000 cells/well and were allowed to adhere overnight. 100, in a stock solution in DMSO, was diluted in serum-free/phenol red-free DMEM. […] The coverslips were washed and mounted onto microscope slides using FluorSave mounting reagent (Millipore, Darmstadt, Germany). Slides were imaged on a Leica SP5 confocal microscope.
as §1
To analyze the internalization of eHsp90 in transformed cells, the 4T1 cell model was utilized.

Structures are written as SMILES.

Regarding `Cc1nn(-c2ccc(C(N)=O)c(NCCCOCCOCCOCCOCCOCCCN(Cc3ccc(C(=C\C=C4\N(CCCCS(=O)(=O)O)c5ccccc5C4(C)C)/C=C/C4=[N+](CCCCS(=O)(=O)[O-])c5ccccc5C4(C)C)cc3)Cc3ccc[c]([Sn]([CH3])([CH3])[CH3])c3)c2)c2c1C(=O)CC(C)(C)C2` [Compound 118, 4-(2-((E,3Z)-3-(4-(21-((2-carbamoyl-5-(3,6,6-trimethyl-4-oxo-4,5,6,7-tetrahydro-1H-indazol-1-yl)phenyl)amino)-2-(3-(trimethylstannyl)benzyl)-6,9,12,15,18-pentaoxa-2-azahenicosyl)phenyl)-5-((E)-3,3-dimethyl-1-(4-sulfobutyl)indolin-2-ylidene)penta-1,3-dien-1-yl)-3,3-dimethyl-3H-indol-1-ium-1-yl)butane-1-sulfonate], the stability on storage result in series [1] was “significant decomposition”.

`Cc1nn(-c2ccc(C(N)=O)c(NCCCOCCOCCOCCOCCOCCCNC(=S)Nc3ccc4c(c3)C(=O)OC43c4ccc(O)cc4Oc4cc(O)ccc43)c2)c2c1C(=O)CC(C)(C)C2` [HS-27, reference compound]: in the series with non-malignant cells, the “puncta formation on non-malignant cells” value was “puncta do not form”. Besides, the “puncta formation when applied to cells” value in the series on MDA-MB-468 cells was “forms puncta”.

For `Cc1nn(-c2ccc(C(N)=O)c(N[C@H]3CC[C@H](O)CC3)c2)c2c1C(=O)CC(C)(C)C2` [HS-10], in the series with eHsp90 [2], the “competition of puncta detected with 100” value was “competed”. The “competition of binding of probe 100 to eHsp90” value in the series on eHsp90 [3] (MDA-MB-468 cells, 100 at 25 μM, 45 min, 1 μM HS-10 or 10 μM PUH71) is on record as “competed”. For the same compound, the “blocking of binding of 100 and HS-27 to eHsp90” value in the series on eHsp90 [3] (untethered Hsp90 inhibitors) was “blocked”.
